Assay results: patent publication US8445492B2, “Method for inhibiting growth of cancer cells and cell telomere and diseases of cell proliferation by using heteroannelated anthraquinone derivative compounds” (National Defense Medical Center, priority 2008, dated 2013)
Read-outs that look alike come from different tables or passages of the source.

Legend:
Assay type in all cases: cell-based
HCC-2998 = assay: in vitro test at 1.0×10^−5 M, Colorectal cancer cell; conditions: 1.0×10^−5 molal concentration (M)
SK-MEL-2 = assay: in vitro test at 1.0×10^−5 M, Skin cancer cell; conditions: 1.0×10^−5 molal concentration (M)
UACC-257 = assay: in vitro test at 1.0×10^−5 M, Skin cancer cell; conditions: 1.0×10^−5 molal concentration (M)
IGROV1 = assay: in vitro test at 1.0×10^−5 M, Ovary cancer cell; conditions: 1.0×10^−5 molal concentration (M)
MOLT-4 = assay: in vitro test at 1.0×10^−5 M, Blood cancer cell; conditions: 1.0×10^−5 molal concentration (M)
ACHN [1] = assay: in vitro test at 1.0×10^−5 M, Kidney cancer cell; conditions: 1.0×10^−5 molal concentration (M)
UO-31 [2] = assay: in vitro test at 1.0×10^−5 M, Kidney cancer cell; conditions: 1.0×10^−5 molal concentration (M)
HOP-92 = assay: in vitro test at 1.0×10^−5 M, Non-small cell lung cancer cell; conditions: 1.0×10^−5 molal concentration (M)
LOX IMV1 = assay: in vitro test at 1.0×10^−5 M, Skin cancer cell; conditions: 1.0×10^−5 molal concentration (M)
MDA-MB-435 = assay: in vitro test at 1.0×10^−5 M, Breast cancer cell; conditions: 1.0×10^−5 molal concentration (M)
MCF7 = assay: in vitro test at 1.0×10^−5 M, Breast cancer cell; conditions: 1.0×10^−5 molal concentration (M)
OVCAR-4 = assay: in vitro test at 1.0×10^−5 M, Ovary cancer cell; conditions: 1.0×10^−5 molal concentration (M)
SF-539 = assay: in vitro test at 1.0×10^−5 M, CNS cancer cell
UACC-62 = assay: in vitro test at 1.0×10^−5 M, Skin cancer cell; conditions: 1.0×10^−5 molal concentration (M)
T-47D = assay: in vitro test at 1.0×10^−5 M, Breast cancer cell; conditions: 1.0×10^−5 molal concentration (M)
MDA-MB-468 = assay: in vitro test at 1.0×10^−5 M, Breast cancer cell; conditions: 1.0×10^−5 molal concentration (M)
SN12C [3] = assay: in vitro test at 1.0×10^−5 M, Kidney cancer cell; conditions: 1.0×10^−5 molal concentration (M)
U251 = assay: in vitro test at 1.0×10^−5 M, CNS cancer cell
MALME-3M = assay: in vitro test at 1.0×10^−5 M, Skin cancer cell; conditions: 1.0×10^−5 molal concentration (M)
[4] = system: different cancer cell lines; assay: in vitro test at 1.0×10^−5 M, summary over the cell lines; set-up: unit not given here; conditions: 1.0×10^−5 molal concentration (M)
RXF 393 = assay: NCI DTP in-vitro dose response, Renal Cancer
786-0 = assay: NCI DTP in-vitro dose response, Renal Cancer
SN12C [5] = assay: NCI DTP in-vitro dose response, Renal Cancer; conditions: SN12C
A498 = assay: NCI DTP in-vitro dose response, Renal Cancer
TK-10 = assay: NCI DTP in-vitro dose response, Renal Cancer
ACHN [6] = assay: NCI DTP in-vitro dose response, Renal Cancer; conditions: ACHN
CAKI-1 = assay: NCI DTP in-vitro dose response, Renal Cancer
UO-31 [7] = assay: NCI DTP in-vitro dose response, Renal Cancer
[8] = 1.0×10^−5 molal concentration (M)
[9] = read-out: LC50 (the source's name)

With O=C1c2ccccc2C(=O)c2c1ccc1[nH]c(=O)c(=O)[nH]c21 [No. 26, Naphtho[2,3-f]quinoxaline-2,3,7,12 (1H,4H)-tetraone] the “inhibition effect on cancer cell line (Table 2 value)” value (“inhibition effect on cancer cell line” for short) (HCC-2998) was 77.59, the “inhibition effect on cancer cell line” value (SK-MEL-2) was 21.96 and the “inhibition effect on cancer cell line” value (UACC-257) was 118.21. For the same molecule, the “inhibition effect on cancer cell line” value (IGROV1) was 13.36, the “inhibition effect on cancer cell line” value (MOLT-4) was 121.52 and the “inhibition effect on cancer cell line” value (ACHN [1]) was 81.33. The “inhibition effect on cancer cell line” value (UO-31 [2]) was 61.43, the “inhibition effect on cancer cell line” value (HOP-92) was −15.08 and the “inhibition effect on cancer cell line” value (LOX IMV1) was 96.94. The “inhibition effect on cancer cell line” value (MDA-MB-435) was 144.42, the “inhibition effect on cancer cell line” value (MCF7) was 85.17 and the “inhibition effect on cancer cell line” value (OVCAR-4) was 103.31. For the same molecule, the “inhibition effect on cancer cell line” value (SF-539; [8]) was 101.16, the “inhibition effect on cancer cell line” value (UACC-62) was 95.25 and the “inhibition effect on cancer cell line” value (T-47D) was 87.10. The “inhibition effect on cancer cell line” value (MDA-MB-468) was 38.35, the “inhibition effect on cancer cell line” value (SN12C [3]) was 94.07 and the “inhibition effect on cancer cell line” value (U251; [8]) was 95.92. For the same molecule, the “inhibition effect on cancer cell line” value (MALME-3M) was 149.83 and the Mean [4] was 100.83.
For O=C1c2ccccc2C(=O)c2c1ccc1nccnc21 [No. 25, Naphthol-[2,3-f]quinoxaline-7,12-dione], the “inhibition effect on cancer cell line” value (HCC-2998) was −7.15, the “inhibition effect on cancer cell line” value (SK-MEL-2) was 6.66 and the “inhibition effect on cancer cell line” value (UACC-257) was 91.06. For the same molecule, the “inhibition effect on cancer cell line” value (IGROV1) was 3.44, the “inhibition effect on cancer cell line” value (MOLT-4) was 22.91 and the “inhibition effect on cancer cell line” value (ACHN [1]) was 46.52. The “inhibition effect on cancer cell line” value (UO-31 [2]) was 51.45, the “inhibition effect on cancer cell line” value (LOX IMV1) was 44.18 and the “inhibition effect on cancer cell line” value (MDA-MB-435) was 102.03. The “inhibition effect on cancer cell line” value (MCF7) was 39.68, the “inhibition effect on cancer cell line” value (OVCAR-4) was 94.22 and the “inhibition effect on cancer cell line” value (SF-539; [8]) was 40.72. The “inhibition effect on cancer cell line” value (UACC-62) was 90.47, the “inhibition effect on cancer cell line” value (T-47D) was 85.19 and the “inhibition effect on cancer cell line” value (MDA-MB-468) was 75.28. For the same molecule, the “inhibition effect on cancer cell line” value (SN12C [3]) was 64.65, the “inhibition effect on cancer cell line” value (U251; [8]) was 63.47 and the “inhibition effect on cancer cell line” value (MALME-3M) was 180.88. It also gave a Mean [4] of 69.36.
With O=C1c2ccccc2C(=O)c2c1ccc1nccnc21 [TABLE 5-7] the GI50 (RXF 393; RXF 393) was 6.43 µM, the TGI (RXF 393; RXF 393) was >1.00E−4 and the “Percent Growth” value (RXF 393; RXF 393, Log10 Concentration −4.0) was 7%. For the same molecule, the “Percent Growth” value (RXF 393; RXF 393, Log10 Concentration −5.0) was 43%, the “Percent Growth” value (RXF 393; RXF 393, Log10 Concentration −6.0) was 81% and the “Percent Growth” value (RXF 393; RXF 393, Log10 Concentration −7.0) was 93%. The “Percent Growth” value (RXF 393; RXF 393, Log10 Concentration −8.0) was 97%, the CC50 (RXF 393; RXF 393, read-out: LC50 (the source's name)) was > 100 µM and the TGI (786-0; 786-0) was >1.00E−4. For the same molecule, the “Percent Growth” value (786-0; 786-0, Log10 Concentration −4.0) was 15%, the “Percent Growth” value (786-0; 786-0, Log10 Concentration −5.0) was 47% and the “Percent Growth” value (786-0; 786-0, Log10 Concentration −6.0) was 104%. For the same molecule, the “Percent Growth” value (786-0; 786-0, Log10 Concentration −7.0) was 101%, the “Percent Growth” value (786-0; 786-0, Log10 Concentration −8.0) was 98% and the GI50 (786-0; 786-0, read-out: GI50) was 8.87 µM. The CC50 (786-0; 786-0, read-out: LC50 (the source's name)) was > 100 µM, the TGI (SN12C [5]) was 9.27E−5 and the “Percent Growth” value (SN12C [5]; Log10 Concentration −4.0) was −2%. For the same molecule, the “Percent Growth” value (SN12C [5]; Log10 Concentration −5.0) was 57%, the “Percent Growth” value (SN12C [5]; Log10 Concentration −6.0) was 78% and the “Percent Growth” value (SN12C [5]; Log10 Concentration −7.0) was 71%. The “Percent Growth” value (SN12C [5]; Log10 Concentration −8.0) was 87%, the GI50 (SN12C [5]; read-out: GI50) was 13.2 µM and the CC50 (SN12C [5]; [9]) was > 100 µM. The TGI (A498; A498) was 5.03E−5, the “Percent Growth” value (A498; A498, Log10 Concentration −4.0) was −21% and the “Percent Growth” value (A498; A498, Log10 Concentration −5.0) was 49%. The “Percent Growth” value (A498; A498, Log10 Concentration −6.0) was 89%, the “Percent Growth” value (A498; A498, Log10 Concentration −7.0) was 85% and the “Percent Growth” value (A498; A498, Log10 Concentration −8.0) was 93%. The GI50 (A498; A498, read-out: GI50) was 9.31 µM, the CC50 (A498; A498, read-out: LC50 (the source's name)) was > 100 µM and the TGI (TK-10; TK-10) was >1.00E−4. The “Percent Growth” value (TK-10; TK-10, Log10 Concentration −4.0) was 2%, the “Percent Growth” value (TK-10; TK-10, Log10 Concentration −5.0) was 36% and the “Percent Growth” value (TK-10; TK-10, Log10 Concentration −6.0) was 83%. For the same molecule, the “Percent Growth” value (TK-10; TK-10, Log10 Concentration −7.0) was 85%, the “Percent Growth” value (TK-10; TK-10, Log10 Concentration −8.0) was 102% and the GI50 (TK-10; TK-10, read-out: GI50) was 5 µM. The CC50 (TK-10; TK-10, read-out: LC50 (the source's name)) was > 100 µM, the TGI (ACHN [6]) was >1.00E−4 and the “Percent Growth” value (ACHN [6]; Log10 Concentration −4.0) was 2%. The “Percent Growth” value (ACHN [6]; Log10 Concentration −5.0) was 31%, the “Percent Growth” value (ACHN [6]; Log10 Concentration −6.0) was 77% and the “Percent Growth” value (ACHN [6]; Log10 Concentration −7.0) was 87%. The “Percent Growth” value (ACHN [6]; Log10 Concentration −8.0) was 98%, the GI50 (ACHN [6]; read-out: GI50) was 3.85 µM and the CC50 (ACHN [6]; [9]) was > 100 µM. For the same molecule, the TGI (CAKI-1; CAKI-1) was >1.00E−4, the “Percent Growth” value (CAKI-1; CAKI-1, Log10 Concentration −4.0) was 4% and the “Percent Growth” value (CAKI-1; CAKI-1, Log10 Concentration −5.0) was 39%. The “Percent Growth” value (CAKI-1; CAKI-1, Log10 Concentration −6.0) was 87%, the “Percent Growth” value (CAKI-1; CAKI-1, Log10 Concentration −7.0) was 89% and the “Percent Growth” value (CAKI-1; CAKI-1, Log10 Concentration −8.0) was 94%. The GI50 (CAKI-1; CAKI-1, read-out: GI50) was 5.83 µM, the CC50 (CAKI-1; CAKI-1, read-out: LC50 (the source's name)) was > 100 µM and the TGI (UO-31 [7]; UO-31) was 8.59E−5. For the same molecule, the “Percent Growth” value (UO-31 [7]; UO-31, Log10 Concentration −4.0) was −2%, the “Percent Growth” value (UO-31 [7]; UO-31, Log10 Concentration −5.0) was 25% and the “Percent Growth” value (UO-31 [7]; UO-31, Log10 Concentration −6.0) was 73%. For the same molecule, the “Percent Growth” value (UO-31 [7]; UO-31, Log10 Concentration −7.0) was 73%, the “Percent Growth” value (UO-31 [7]; UO-31, Log10 Concentration −8.0) was 80% and the GI50 (UO-31 [7]; UO-31, read-out: GI50) was 3.02 µM. The CC50 (UO-31 [7]; UO-31, read-out: LC50 (the source's name)) was > 100 µM.
CC1(C)Nc2ccc3c(c2N1)C(=O)c1ccccc1C3=O [No. 20, 2,2-Dimethyl-2,3-dihydro-1H-anthra[1,2-d]imidazole-6,11-dione] was tested, and the “inhibition effect on cancer cell line” value (HCC-2998) was 136.96, the “inhibition effect on cancer cell line” value (SK-MEL-2) was 8.04 and the “inhibition effect on cancer cell line” value (UACC-257) was 118.22. For the same molecule, the “inhibition effect on cancer cell line” value (IGROV1) was −2.80, the “inhibition effect on cancer cell line” value (MOLT-4) was 116.41 and the “inhibition effect on cancer cell line” value (ACHN [1]) was 50.17. The “inhibition effect on cancer cell line” value (UO-31 [2]) was 30.65, the “inhibition effect on cancer cell line” value (HOP-92) was 5.10 and the “inhibition effect on cancer cell line” value (LOX IMV1) was 61.88. The “inhibition effect on cancer cell line” value (MDA-MB-435) was 124.56, the “inhibition effect on cancer cell line” value (MCF7) was 83.58 and the “inhibition effect on cancer cell line” value (OVCAR-4) was 80.14. The “inhibition effect on cancer cell line” value (SF-539) was 93.56, the “inhibition effect on cancer cell line” value (UACC-62) was 67.58 and the “inhibition effect on cancer cell line” value (T-47D) was 82.96. The “inhibition effect on cancer cell line” value (MDA-MB-468) was 77.25, the “inhibition effect on cancer cell line” value (SN12C [3]) was 91.98 and the “inhibition effect on cancer cell line” value (U251) was 87.84. For the same molecule, the “inhibition effect on cancer cell line” value (MALME-3M) was 155.47 and the Mean [4] was 80.41.
